The values that follow are results of earlier work, collected in patent publication CN114917233A, “一种包含核苷类似物的药物组合物及其制备方法和应用” (Suzhou Vigonvita Life Sciences Co Ltd, priority 2022, dated 2022).

Data set [1] deals with SARS-CoV-2.
In data set [2] the test system is SARS-CoV-2. To be noted: 5 μM, in vitro.

Take `N#C[C@@]1(c2ccc3c(N)ncnn23)O[C@H](CO)[C@@H](O)[C@H]1O` [GS-441524]: the “oral bioavailability (in words)” value was “低”. Further, the “inhibition of SARS-CoV-2 replication (in words)” value in data set [1] is on record as “具有抑制作用”. In data set [1] (versus RDV), the “inhibition of virus replication compared with RDV (in words)” value is on record as “更强的病毒复制抑制作用”.
Consider `CCC(CC)COC(=O)[C@H](C)N[P@](=O)(OC[C@H]1O[C@@](C#N)(c2ccc3c(N)ncnn23)[C@H](O)[C@@H]1O)Oc1ccccc1` [RDV], for which the “inhibition of SARS-CoV-2 replication (in words)” value in data set [1] is given as “具有抑制作用”.
For `CC(C)C(=O)OC[C@H]1O[C@@](C#N)(c2ccc3c(N)ncnn23)[C@H](OC(=O)C(C)C)[C@@H]1OC(=O)C(C)C` [式I化合物, (2R,3R,4R,5R)-2-(4-氨基吡咯并[2,1-f][1,2,4]三嗪-7-基)-2-氰基-5-((异丁酰氧基)甲基)四氢呋喃-3,4-二基双(2-甲基丙酸酯)], the replication inhibition rate in data set [2] is listed as 99%.
